Experimental findings from patent publication US6335332B1, “Barbituric acid derivatives with antimetastatic and antitumor activity” (Roche Diagnostics GmbH, priority 1997, dated 2002) are described below.

Where two headings read alike, the source gives them in different places.

Assay [1] addresses T1, MMP-9 (gelentinase 92 kD) (Homo sapiens, UniProt P14780).
T1 construct: MMP-9 IC50; other: catalytic domain
T1 sequence (P14780 with tags, fused parts or gaps DEL217-390 limits assumed): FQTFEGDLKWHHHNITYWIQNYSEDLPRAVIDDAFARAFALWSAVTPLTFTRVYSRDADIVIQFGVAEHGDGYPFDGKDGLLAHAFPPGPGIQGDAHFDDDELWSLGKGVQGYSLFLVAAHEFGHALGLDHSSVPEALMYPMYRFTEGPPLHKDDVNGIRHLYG
Description: Inhibition of MMP-9 catalytic domain (same test as MMP8). The format is biochemical. Here is the method: The compounds of the present invention have been tested in a pharmacological “in vitro” test of inhibition of MMP8 (human neutrophil collagenase). Said test provides for the determination via fluorescence of the inhibition of the degradation of a fluorescent substrate (DNP-Pro-Leu-Gly-Leu-Trp-Ala-D-Arg-[…], M1855 Bachem) by means of the catalytic domain of MMP8.
(§1) Reagents: 1) DNP-substrate=DNP-Pro-Leu-Gly-Leu-Trp-Ala-D-Arg-NH2 (M1855 Bachem), M. W. 977,l g/mol, concentration 25 μM in DMSO, 2) measurement buffer=50 mM TRIS/100 mM NaCl/10 mM CaCl2.2H2O, adjusted at pH 7 6 with hydrochloric acid. 3) Enzyme=catalytic domain of MMP8 ([…]), concentration 0.055 mg/ml in TRIS buffer. Substrate and enzyme are maintained at 0° C. with ice bath.
(§2) Total volume=1 ml of solution kept under stirring in a cuvette
(§3) It is measured the fluoresence at 346 nm both of the control solution (without inhibitor) and of the solution containing the inhibitor. The inhibition of the catalytic activity of MMP8 results in the decrease of the DNP-substrate bond's lysis, with related decrease of the fluorescence of the solution.
(§4) The percentage of inhibition is expressed by the following formula:
(§5) % Inhibition=100−(rel. unit/timewith inhibitor/rel. unit/timecontrol×100)
(§6) By repeating the experiment at different concentrations of inhibitor it is possible to determine the IC50 value.
The same test has been performed also on the MMP-9 (gelentinase 92 kD) and the selectivity between the two enzymes has been evaluated. Values of MMP-9/MMP-8 rate well below 1 are expected to give rise to less side toxic effects, since MMP-8 seems more involved in the regulation of vital functions that MMP-9 does.

For assay [2], the target named is T2, MMP8 (human neutrophil collagenase) catalytic domain (Homo sapiens, UniProt P22894).
T2 construct: by means of the catalytic domain of MMP8
T2 sequence (P22894 100-262 limits assumed): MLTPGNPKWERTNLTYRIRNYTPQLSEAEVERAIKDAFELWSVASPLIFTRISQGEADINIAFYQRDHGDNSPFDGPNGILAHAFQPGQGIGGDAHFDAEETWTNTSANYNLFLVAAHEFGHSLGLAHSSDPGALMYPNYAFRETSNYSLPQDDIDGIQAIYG
Description: Inhibition of MMP8 catalytic domain, fluorescent DNP-substrate degradation. The format is biochemical. The method, then:
Said test provides for the determination via fluorescence of the inhibition of the degradation of a fluorescent substrate (DNP-Pro-Leu-Gly-Leu-Trp-Ala-D-Arg-[…], M1855 Bachem) by means of the catalytic domain of MMP8.
as §1, §2, §3, §4, §5, §6

The subject of assay [3] is human fibrosarcoma HT1080 cells. Description: Test of chemoinvasion through Type IV collagen coated Transwell chambers. It is filed as cell-based. The settings on record: HT-1080, concentration 10^-7 M. Here is the method:
The compounds of the present invention have also shown activity in a test of chemoinvasion. In the test of chemoinvasion the Costar Transwell chambers for cell culture (diameter: 6.5 mm: pore size: 8 μm) are coated with 100 μl of Type IV collagen (diluted solution 50 μg/ml, then evaporation overnight). With the same procedure the chambers are coated with a second layer of Type IV collagen (100 μl of solution at concentration 50 μg/ml). Before use, the chambers are rinsed twice with sterile water and incubated for about 1 hour at 37° C. in a serum-free medium (DMEM).
The human fibrosarcoma HT1080 cells are harvested by trypsin-EDTA treatment, washed with DMEM-10% FCS and incubated for at least 30 minutes at 37° C. in the same medium. The cells are then washed with serum-free DMEM and resuspended in serum-free DMEM added with 0.1% BSA (fraction V), counted and diluted to obtain a final density of 3×10^5 cell/ml.
Preincubated inserts are aspirated to remove the serum-free medium. […]
Incubated filters are then washed with PBS, the cells are fixed 15 min. in 4% paraformaldehyde, permeabilized in methanol (10 minutes, −20° C.) and stained with May-Grunwald-Giemsa. Cells which adhere to the top of the filters are removed with a cotton swab, filters are detached from the bottom of the chambers and analyzed with microscope to determine the number of cells on the lower side of the filters. […]

Regarding `CCCCCCCCC1(CC(=O)N(CCNC(C)=O)Cc2ccccc2)C(=O)NC(=O)NC1=O` [Example 6, 5-octyl-5-(carboxymethyl)barbituric acid N′-acetyl-N-benzyl-N-ethylenediamide], the IC50 (as a rule, the midpoint of a concentration-inhibition curve) in assay [1] was 14 nM; in assay [2] it was 68 nM. Moreover, testing at 0.1 µM in assay [3] gave an inhibition of 73%.

Turning to `CCCCCCCCC1(CC(=O)OCC)C(=O)NC(=O)NC1=O` [Example 1, 5-octyl-5-(ethoxycarbonylmethyl)barbituric acid], the IC50 came out at 19.6 nM in assay [1] and 107 nM in assay [2]. For `CNC(=O)[C@H](Cc1ccccc1)NC(=O)[C@H](CC(C)C)[C@H](CSc1cccs1)C(=O)NO` [batimastat, reference compound], the IC50 in assay [1] (catalytic domain, read-out: MMP-9 IC50) is 25 nM.

Consider `CNC(=O)[C@H](Cc1ccccc1)NC(=O)[C@H](CC(C)C)[C@H](CSc1ccccc1)C(=O)NO` [GI 129471, reference compound], for which 0.1 µM produced 77% inhibition in assay [3].

Take `CCCCCCCCC1(CC(=O)NCCNC(C)=O)C(=O)NC(=O)NC1=O` [Example 5, 5-octyl-5-(carboxymethyl)barbituric acid N′-acetyl N-ethylenediamide]: the results for the half-maximal inhibitory concentration (IC50) in assay [1] and in assay [2] were 20 nM and 99 nM, respectively.
